# Molecular target: P. falciparum apicoplast DNA polymerase (Pf-apPOL) (Plasmodium falciparum, UniProt Q8ILY1)
# Test: Fluorescence-based high-throughput DNA polymerase assay (molecular beacon), primary screen and dose-response
# Type: biochemical
# Settings: for DNA Pol: unit not given, 90 min, 10 µM; for % inhibition Apo pol 10' 2.5 / % inhibition Apo pol 10' 5 / % inhibition Apo pol 10' 10 / % inhibition Apo pol 10' 20 / % inhibition Apo pol 10' 40 / % inhibition Apo pol 10' 80: read at 10'; for % inhibition Apo pol 10' 2.5 / % inhibition Apol 90' 2.5 / % inhibition apPOL 180' 2.5 / % inhibition Apo pol 5' 2.5 / % inhibition Apol 40' 2.5 / % inhibition ApPOL 90' 2.5: concentration 2.5; for % inhibition Apo pol 10' 5 / % inhibition Apol 90' 5 / % inhibition apPOL 180' 5 / % inhibition Apo pol 5' 5 / % inhibition Apol 40' 5 / % inhibition ApPOL 90' 5: concentration 5; for % inhibition Apo pol 10' 40 / % inhibition Apol 90' 40 / % inhibition apPOL 180' 40 / % inhibition Apo pol 5' 40 / % inhibition Apol 40' 40 / % inhibition ApPOL 90' 40: concentration 40; for % inhibition Apo pol 10' 80 / % inhibition Apol 90' 80 / % inhibition apPOL 180' 80 / % inhibition Apo pol 5' 80 / % inhibition Apol 40' 80 / % inhibition ApPOL 90' 80: concentration 80; for % inhibition Apol 90' 2.5 / % inhibition Apol 90' 5 / % inhibition Apol 90' 10 / % inhibition Apol 90' 20 / % inhibition Apol 90' 40 / % inhibition Apol 90' 80 / % inhibition ApPOL 90' 2.5 / % inhibition ApPOL 90' 5 / % inhibition ApPOL 90' 10 / % inhibition ApPOL 90' 20 / % inhibition ApPOL 90' 40 / % inhibition ApPOL 90' 80: read at 90'; for % inhibition apPOL 180' 2.5 / % inhibition apPOL 180' 5 / % inhibition apPOL 180' 10 / % inhibition apPOL 180' 20 / % inhibition apPOL 180' 40 / % inhibition apPOL 180' 80: read at 180'; for % inhibition Apo pol 5' 2.5 / % inhibition Apo pol 5' 5 / % inhibition Apo pol 5' 10 / % inhibition Apo pol 5' 20 / % inhibition Apo pol 5' 40 / % inhibition Apo pol 5' 80: read at 5'; for % inhibition Apol 40' 2.5 / % inhibition Apol 40' 5 / % inhibition Apol 40' 10 / % inhibition Apol 40' 20 / % inhibition Apol 40' 40 / % inhibition Apol 40' 80: read at 40'
# Summary of the method: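 Single-point screening used 10 µM compound with 20 nM polymerase, 20 nM hairpin substrate and 6 µM dNTPs for 90 min at 25 °C. Confirmatory titrations (2.5–80 µM) followed fluorescence at three times, and IC50 was derived from a fit including a cooperativity term n.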
# [1] = 186 hits, DNA Pol (screen value)
# Chain of P. falciparum apicoplast DNA polymerase (Pf-apPOL) (Q8ILY1 entry or part of it): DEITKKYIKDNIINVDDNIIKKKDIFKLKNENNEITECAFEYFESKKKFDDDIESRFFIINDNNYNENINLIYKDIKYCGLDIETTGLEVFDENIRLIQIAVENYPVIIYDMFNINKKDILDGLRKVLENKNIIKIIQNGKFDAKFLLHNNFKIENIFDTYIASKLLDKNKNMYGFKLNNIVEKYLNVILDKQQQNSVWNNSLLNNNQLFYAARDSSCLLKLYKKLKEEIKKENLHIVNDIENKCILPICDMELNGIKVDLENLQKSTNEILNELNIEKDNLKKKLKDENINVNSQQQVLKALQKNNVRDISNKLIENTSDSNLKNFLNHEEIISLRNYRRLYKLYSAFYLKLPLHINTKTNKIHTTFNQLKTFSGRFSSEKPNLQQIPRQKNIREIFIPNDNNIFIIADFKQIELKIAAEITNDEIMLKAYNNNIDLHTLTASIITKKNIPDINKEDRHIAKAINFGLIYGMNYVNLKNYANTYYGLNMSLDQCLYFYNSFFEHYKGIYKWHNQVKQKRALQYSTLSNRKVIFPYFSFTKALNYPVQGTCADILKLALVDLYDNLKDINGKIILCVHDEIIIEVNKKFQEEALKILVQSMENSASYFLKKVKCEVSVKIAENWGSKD
structure (smiles),measurement,setting,value
CC(C)CC(C(=O)O)N1C(=O)C2C3C=CC(C2C1=O)C1C(=O)N(C(CC(C)C)C(=O)O)C(=O)C31 (stereo not drawn) [KU0193449],DNA Pol,[1],28
same,DNA Pol,'DNA Pol' (screen value),28
same,% inhibition Apo pol 10' 2.5,DRC-1,0%
same,% inhibition Apo pol 10' 5,DRC-1,0.7522%
same,% inhibition Apo pol 10' 10,"DRC-1, concentration 10",13.4113%
same,% inhibition Apo pol 10' 20,"DRC-1, concentration 20",21.694%
same,% inhibition Apo pol 10' 40,DRC-1,38.6815%
same,% inhibition Apo pol 10' 80,DRC-1,61.0106%
same,% inhibition Apol 90' 2.5,DRC-1,5.482%
same,% inhibition Apol 90' 5,DRC-1,4.361%
same,% inhibition Apol 90' 10,"DRC-1, concentration 10",18.2004%
same,% inhibition Apol 90' 20,"DRC-1, concentration 20",26.7933%
same,% inhibition Apol 90' 40,DRC-1,43.0787%
same,% inhibition Apol 90' 80,DRC-1,61.6554%
same,% inhibition apPOL 180' 2.5,DRC-1,11.5947%
same,% inhibition apPOL 180' 5,DRC-1,8.787%
same,% inhibition apPOL 180' 10,"DRC-1, concentration 10",22.2545%
same,% inhibition apPOL 180' 20,"DRC-1, concentration 20",29.0446%
same,% inhibition apPOL 180' 40,DRC-1,41.2526%
same,% inhibition apPOL 180' 80,DRC-1,55.1992%
same,% inhibition Apo pol 5',"DRC-2, concentration 20",13%
same,% inhibition Apol 40',"DRC-2, concentration 20",20%
same,% inhibition ApPOL 90',"DRC-2, concentration 20",20%
same,% inhibition apPOL 180',"DRC-2, 180', concentration 20",13%
same,% inhibition Apo pol 5' 2.5,DRC-2,-1.41%
same,% inhibition Apo pol 5' 5,DRC-2,2.69%
same,% inhibition Apo pol 5' 10,"DRC-2, concentration 10",10%
same,% inhibition Apo pol 5' 20,"DRC-2, concentration 20",13%
same,% inhibition Apo pol 5' 40,DRC-2,23%
same,% inhibition Apo pol 5' 80,DRC-2,31%
same,% inhibition Apol 40' 2.5,DRC-2,-0.315%
same,% inhibition Apol 40' 5,DRC-2,4.49%
same,% inhibition Apol 40' 10,"DRC-2, concentration 10",12%
same,% inhibition Apol 40' 20,"DRC-2, concentration 20",20%
same,% inhibition Apol 40' 40,DRC-2,33%
same,% inhibition Apol 40' 80,DRC-2,49%
same,% inhibition ApPOL 90' 2.5,DRC-2,-0.778%
same,% inhibition ApPOL 90' 5,DRC-2,4.24%
same,% inhibition ApPOL 90' 10,"DRC-2, concentration 10",11%
same,% inhibition ApPOL 90' 20,"DRC-2, concentration 20",20%
same,% inhibition ApPOL 90' 40,DRC-2,34%
same,% inhibition ApPOL 90' 80,DRC-2,51%
same,% inhibition apPOL 180' 2.5,DRC-2,-5%
same,% inhibition apPOL 180' 5,DRC-2,-2.57%
same,% inhibition apPOL 180' 10,"DRC-2, concentration 10",5%
same,% inhibition apPOL 180' 20,"DRC-2, concentration 20",13%
same,% inhibition apPOL 180' 40,DRC-2,28%
same,% inhibition apPOL 180' 80,DRC-2,47%
Cc1cccc(-c2noc(C(=O)NNC(=O)C(Cl)(Cl)Cl)n2)c1 [KU0266208],DNA Pol,[1],74
same,DNA Pol,'DNA Pol' (screen value),74
same,% inhibition Apo pol 10' 2.5,DRC-1,9.201%
same,% inhibition Apo pol 10' 5,DRC-1,9.396%
same,% inhibition Apo pol 10' 10,"DRC-1, concentration 10",14.6387%
same,% inhibition Apo pol 10' 20,"DRC-1, concentration 20",23.1394%
same,% inhibition Apo pol 10' 40,DRC-1,47.3506%
same,% inhibition Apo pol 10' 80,DRC-1,74.0124%
same,% inhibition Apol 90' 2.5,DRC-1,-1.588%
same,% inhibition Apol 90' 5,DRC-1,-0.4833%
same,% inhibition Apol 90' 10,"DRC-1, concentration 10",4.634%
same,% inhibition Apol 90' 20,"DRC-1, concentration 20",14.9894%
same,% inhibition Apol 90' 40,DRC-1,39.8547%
same,% inhibition Apol 90' 80,DRC-1,66.9528%
same,% inhibition apPOL 180' 2.5,DRC-1,-5.775%
same,% inhibition apPOL 180' 5,DRC-1,-5.2438%
same,% inhibition apPOL 180' 10,"DRC-1, concentration 10",-0.4994%
same,% inhibition apPOL 180' 20,"DRC-1, concentration 20",8.812%
same,% inhibition apPOL 180' 40,DRC-1,34.7216%
same,% inhibition apPOL 180' 80,DRC-1,64.1117%
same,% inhibition Apo pol 5',"DRC-2, concentration 10",11%
same,% inhibition Apol 40',"DRC-2, concentration 10",11%
same,% inhibition Apol 40',"DRC-2, concentration 20",24%
same,% inhibition ApPOL 90',"DRC-2, concentration 20",24%
same,% inhibition Apo pol 5' 2.5,DRC-2,4.48%
same,% inhibition Apo pol 5' 5,DRC-2,5.63%
same,% inhibition Apo pol 5' 10,"DRC-2, concentration 10",11%
same,% inhibition Apo pol 5' 20,"DRC-2, concentration 20",21%
same,% inhibition Apo pol 5' 40,DRC-2,36%
same,% inhibition Apo pol 5' 80,DRC-2,49%
same,% inhibition Apol 40' 2.5,DRC-2,4.33%
same,% inhibition Apol 40' 5,DRC-2,4.64%
same,% inhibition Apol 40' 10,"DRC-2, concentration 10",11%
same,% inhibition Apol 40' 20,"DRC-2, concentration 20",24%
same,% inhibition Apol 40' 40,DRC-2,44%
same,% inhibition Apol 40' 80,DRC-2,58%
same,% inhibition ApPOL 90' 2.5,DRC-2,3%
same,% inhibition ApPOL 90' 5,DRC-2,2.46%
same,% inhibition ApPOL 90' 10,"DRC-2, concentration 10",10%
same,% inhibition ApPOL 90' 20,"DRC-2, concentration 20",24%
same,% inhibition ApPOL 90' 40,DRC-2,45%
same,% inhibition ApPOL 90' 80,DRC-2,60%
same,% inhibition apPOL 180' 2.5,DRC-2,-1%
same,% inhibition apPOL 180' 5,DRC-2,1.1%
same,% inhibition apPOL 180' 10,"DRC-2, concentration 10",5.71%
same,% inhibition apPOL 180' 20,"DRC-2, concentration 20",20%
same,% inhibition apPOL 180' 40,DRC-2,42%
same,% inhibition apPOL 180' 80,DRC-2,59%
